Laboratory results as given in article PMC8746798, “Evaluation of 2-Thioxoimadazolidin-4-one Derivatives as Potent Anti-Cancer Agents through Apoptosis Induction and Antioxidant Activation: In Vitro and In Vivo Approaches” (Molecules, 2021).

Legend:
[1] = tested on: THLE-2 normal liver cells; assay: MTT assay, normal liver cells; format: cell-based; conditions: Homo sapiens, THLE-2, mean ± SE, n = 3
[2] = tested on: Caspase 3 and 9, Bcl-2, PI3K, AKT proteins in HepG2 cells; assay: Western blot of apoptosis-related proteins; format: cell-based, human; conditions: treated HepG2 vs untreated control, normalized to β-actin
Procedure: Protein expression analysis for phosphorylated/total phosphatidylinositol 3-kinase (PI3K), protein kinase B (Akt), Caspase 3 and 9 proteins, and Bcl-2 was performed using the Western blotting technique to confirm the mechanism of apoptosis induction by compound 4 in HepG2 cells compared to control. Detailed methodology is supported in Supplementary Materials.

[3] = Median lethal dose (LD50); conditions: mouse, in vivo, ip; mice, I.p., 24 h mortality
Procedure: Adopting the procedure described by Finney, different known concentrations of the imidamide 4 were intraperitoneally injected into a group of eight mice (weight on average 21.1 g). […] This assay was carried out evaluate its dose-safety limit and select the dose to be used in the treatment.

[4] = Hematological parameters (CBC) in mice; format: in vivo; conditions: 6 mg/Kg BW; for Hemoglobin: mean ± SE n = 9
Procedure: (§1) We randomly divided 50 mice into groups 5 groups (10 mice in each group): normal control (I) (mice injected intraperitoneally with the same volume of solvent for 14 consecutive days); group II, a group of normal mice treated with compound 4 (mice injected intraperitoneally with newly produced compound 4 at a dose of 6 mg/kg per day for 14 days); group III, solid tumor group (mice were implanted with solid tumor); group IV, group were treated with 5-FU (after 10 days of tumor implantation, mice were treated with 6 mg/kg only once); and group V, solid tumor group were treated with compound 4 (after 10 days of tumor implantation, mice were treated with 6 mg/kg only once). after one day of the previous treatment, 10 mice from each group were sacrificed and tumor weight, tumor volume (length and width of solid femoral tumor), blood and liver samples were obtained from each group. A portion of each blood sample taken was used for complete blood count (CBC) and the rest was centrifuged to obtain the serum. Serum was used for biochemical parameter estimation. The livers were rapidly dissected, washed with isotonic saline, and dried. The experiment design is summarized in Supplementary Figure S3.
Complete blood counts (CBCs) were counted using an AbbottCELLDYN®1800 Automated Hematology Analyzer (Abbott Park, IL, USA) equipped with an off-the-shelf kit (Abbott Laboratories, Abbott Park, IL, USA). For microscopic histopathological examination, tumor and kidney slices were maintained in 10% formalin, dehydrated with graduated alcohol, embedded in paraffin sections, H&E stained, and hematoxylin stained.

[5] = tested on: Solid Ehrlich carcinoma (SEC); assay: In vivo anti-tumor assay: tumor volume and tumor inhibition ratio; conditions: SEC-bearing mice, 6 mg/kg; SEC control 5802 mm^3
Procedure: We used adult Swiss albino female mice with average body weight 18–23 g obtained from Theodor Bilharzia Research Institute in Giza, Egypt. Mice were kept under constant conditions of a 12 h light–dark cycle at temperatures below controlled moisture conditions (22 ± 2 °C) with standard laboratory mouse nutrition and water entries. Approval for the experimental protocol was provided from the ethical committee of Suez Canal University for this experimental protocol (approval number REC-06-2020, Faculty of Science, Suez Canal University). Mice were adapted for approximately 10 days before use in the experiment.
Solid Ehrlich carcinoma (SEC) was obtained from the National Cancer Institute (University of Cairo, Egypt). The tumor cell line proliferated in mice after serial implantation of the peritoneal cavity (I.P.) in 0.2 mL of physiological saline containing 1 × 10^6 viable cells for 24 h. […]
We measured the length and width of the tumor using a digital Vernier clipper (Tricle Brand, Shanghai, China), then we calculate the tumor volume using the formula: V = (L × W × W)/2, where V is tumor volume, W is tumor width, and L is tumor length, and calculated the tumor inhibition ratio% using the formula: TIR %= (C − T)/C × 100, where T represents mean tumor volume of treated group and C represents mean tumor volume of the control group.

[6] = Serum biochemical parameters in mice; format: in vivo; conditions: 6 mg/Kg BW
Procedure: as §1
Evaluation of the activities of aspartate aminotransferase (AST) and alanine aminotransferase (ALT) using a commercial kit (ELITech Clinical Systems, France). The serum albumin level was measured using a kit obtained from STANBIO Company (USA). A commercial kit from the BioDiagnostic Company (Cairo, Egypt) was used to evaluate creatinine and urea levels.

O=C1NC(=S)N(c2ccc(O)cc2)/C1=C/c1cccs1 [Compound 4, (E)-1-(4-Hydroxyphenyl)-5-(thiophen-2-ylmethylene)-2-thioxoimidazolidin-4-one]
IC50 [1]: 56.6 ± 1.5 µM | AKT protein level [2]: decreased | BCL2 protein level [2]: decreased | Caspase 3 protein level [2]: upregulated | Caspase 9 protein level [2]: upregulated | PI3K protein level [2]: decreased | LD50 at 24 h [3]: 6 mg/kg | RBC’s count ([4]; SEC-bearing mice, SEC control 7.52 ± 0.5): 9.3 ± 0.4 ×10^6/µL | Hemoglobin ([4]; SEC-bearing mice, SEC control 11.8 ± 0.8): 13.3 ± 0.7 g/dL | WBC’s count ([4]; SEC-bearing mice, SEC control 16.5 ± 3.4): 9.5 ± 1.9 ×10^3/µL | RBC’s count ([4]; normal mice, normal control 8.8 ± 0.3): 8.7 ± 0.4 ×10^6/µL | WBC’s count ([4]; normal mice, normal control 9.4 ± 1.2): 9.42 ± 1.3 ×10^3/µL | Hemoglobin ([4]; normal mice, normal control 13.3 ± 0.7): 12.6 ± 0.5 g/dL | tumor volume on the final day [5]: 2766 mm^3 | Creatinine ([6]; SEC-bearing mice): 1.0 ± 0.1 mg/dL | Albumin ([6]; SEC-bearing mice, SEC control 4.01 ± 0.4): 3.43 ± 0.1 g/dL | Total Protein ([6]; SEC-bearing mice, SEC control 6.6 ± 0.4): 7.4 ± 0.2 g/dL | Urea ([6]; SEC-bearing mice, SEC control 25.2 ± 2.3): 27 ± 1.5 mg/dL | AST ([6]; SEC-bearing mice, SEC control 48.9 ± 5.5): 37.8 ± 8.4 U/L | ALT ([6]; SEC-bearing mice, SEC control 50 ± 2.7): 37.4 ± 10.4 U/L | Creatinine ([6]; normal mice, normal control 1.6 ± 0.2): 1.1 ± 0.2 mg/dL | Albumin ([6]; normal mice, normal control 4.4 ± 0.4): 4.4 ± 0.8 g/dL | Total Protein ([6]; normal mice, normal control 6.9 ± 0.4): 6.9 ± 1.5 g/dL | Urea ([6]; normal mice, normal control 27.8 ± 2.6): 28.13 ± 2.7 mg/dL | ALT ([6]; normal mice, normal control 35.3 ± 3.8): 43.25 ± 7.4 U/L | AST ([6]; normal mice, normal control 37.4 ± 2.8): 44.9 ± 10.8 U/L
